System: murine Colo-26 tumors
Assay: MR imaging of Colo-26 tumors 30 min after P-PDT
Assay type: in vivo
Details: P-PDT: 0.4 μmol/kg HPPH i.v., 24 h later 6 μmol/kg VBBO i.v., 3 h later 500 J/cm^2 at 619 nm; imaged 30 min after P-PDT; especially in the treated tumor
Method: FIG. 1 is a set of MR images of Colo-26 tumors taken 30 minutes after P-PDT to the tumor on the left of each image.
FIG. 1 illustrates the response of the vasculature in murine Colo-26 tumors to P-PDT. […] In this case, P-PDT involved i.v. injection of 0.4 μmol/kg HPPH (2-[1-hexyl-oxyethyl]-2-devinyl pyropheophoribde-a), followed 24 h later by i.v. injection of 6 μmol/kg VBBO (Victoria Blue-BO), followed 3 h later by local exposure of the tumor to 500 J/cm^2 of light at a wavelength of 619 nm. In Frame A, one can observe that the T2 weighted MRI image of the P-PDT treated tumor is markedly brighter than the control, which is believed to be due to increased water content because of enhanced edema and permeability in that tumor. Image intensity is further heightened by carbogen breathing as shown in Frame B of FIG. 1. […] Changes in signal intensity originate with the magnetic susceptibility of hemoglobin and are dependent on its oxygenation status. Oxyhemoglobin is diamagnetic, while deoxyhemoglobin is paramagnetic. The magnetic susceptibility differences between deoxyhemoglobin and surrounding tissue water create local field gradients that cause phase dispersion of nearby water protons, resulting in a loss of MR signal intensity. […]

SMILES: CCCCCCOC(C)c1c(C)c2cc3nc(c4c5[nH]c(cc6nc(cc1[nH]2)C(C)=C6CC)c(C)c5C(=O)C4)[C@@H](CCC(=O)O)[C@@H]3C (stereo partly shown) [HPPH, 2-[1-hexyl-oxyethyl]-2-devinyl pyropheophoribde-a]
- increase in MR image intensity during carbogen breathing: up to 40%
